# Data taken from patent publication US5155209A, “R-(+) enantiomeric form of 7-(2, 3-epoxypropoxy) actinomycin D” (priority 1991, dated 1992).
# Numbered stars: 1 amine (or outer) side, 2 acyl side, 3 side chain; on linkers, the order of the positions; unused ones are H or OH. Bridge positions count the residues as written; N and C are the ends. Square brackets hold non-standard residues; d marks the D form. Peptide text beside a SMILES is read from it. I, II: the chains in the order shown. Actinocin(9to1) = Cc1c2oc3c(C)ccc(C(=O)[*:1])c3nc-2c(C(=O)[*:2])c(N)c1=O; NMeV = CN[C@H](C(=O)O)C(C)C; Sar = CNCC(=O)O
# Key:
# [1] = test system: DNA synthesis in L1210 cells; assay: Inhibition of DNA synthesis in L1210 ([methyl-14C]thymidine incorporation); type: cell-based, Murine; settings: [methyl-14C]thymidine incorporation into DNA; read-out: inhibition of synthesis of nucleic acids in L1210 IC50 DNA
# Protocol: (§1) ^a Drug concentration (micromolor) for 50% reduction of incorporation
# (§2) of [methyl^14 C]thymidine into DNA^b and [5^3 H] uridine into
# (§3) RNA^c from the rate of incorporation of the same radionucleotides in
# (§4) nondrug treated L1210 cells growing actively in vitro.
# (§5) Inhibition of nucleic acid synthesis in L1210 lymphoid leukemia cells by (±)-EPA and it optical isomers are assayed. […] To achieve this, a digestion of the nucleic acid pellet with DNase-free RNase enzyme, prior to final pelleting of the DNA precipitate is made to ensure that no more than ±8% contamination from […] into DNA takes place, and for this the necessary correction is made in the data reported in Table V.
# Calf Thymus DNA = assay: Thermal denaturation (ΔTm) of DNA-drug complex; type: binding; settings: 0.01 phosphate buffer pH 7.0, 5% Me2SO; in °C (unit assumed)
# Protocol: ^a ΔTm = Tm of DNAdrug complex minus Tm of
# drugfree DNA; concentration of drug 14.0 nM and that of DNA 70 nM in 0.01
# phosphate buffer, pH 7.0, 5 × 10^3 EDTA and 5% Me2 SO.
# DNA-binding experiments were carried out in 0.01M phosphate buffer (pH7), containing EDTA (10^-5 M).
# [2] = test system: RNA synthesis in L1210 cells; assay: Inhibition of RNA synthesis in L1210 ([5-3H]uridine incorporation); type: cell-based, Murine; settings: [5-3H]uridine incorporation into RNA; read-out: inhibition of synthesis of nucleic acids in L1210 IC50 RNA
# Protocol: as §1, §2, §3, §4, §5
# B16 melanoma [3] = assay: B16 melanoma implanted sc, drug iv (sc-iv) in BDF1 mice; type: in vivo
# Protocol: (§6) Subcutaneously implanted B16 melanoma in BDF1 mice is a slow growing tumor, but its rate of growth becomes faster when it is implanted ip. […] This is not consistent with data in other tumors; however, in this connection it should be pointed out that the combined effects of drugs (or enantiomers in this case) can be manifested in several ways, i.e., they can be synergistic, additive, or subtractive.
# (§7) 0.2 ml of brei (tumor weight/Hank's balanced salt solution, (1:5) of B16
# (§8) implanted sc or ip into groups of nine BDF1 mice on day 0. Drugs
# (§9) administered iv on day 1 or ip on days 1, 5, and 9, following tumor
# (§10) administered ip on days 1, 5, and 9. OD, optimal dose in
# (§11) milligrams/milliliter of vehicle, and administered iv or ip in 0.1 mL of
# (§12) vehicle (5% v/v Me2 SOsaline). MST, median survival times in days of
# (§13) tumor bearing and nondrug treated (control) or drugtreated mice. % ILS,
# (§14) percent increase in life span of drug treated groups over the control
# (§15) group of test animals, excluding survivors. (surv), number of sixty day
# (§16) survivors/number of mice treated with drug.
# P388/ADR [4] = assay: Antitumor activity against ip implanted P388/ADR in CDF1 mice; type: in vivo; parameters: OD (optimal dose of drugs): unit not given here
# Protocol: ^e Optimal dose of drugs.
# ^ f Median survival time of tumor bearing mice.
# ^g Percent increase in median life time in days of drugtreated dying
# animals vs those of controls; (survivors), number of 60 days
# survivors/number of animals tested in the group.
# In order to examine a broader spectrum of activity, these optical isomers are tested in two other mouse leukemia cell lines in vivo. One cell line, P388/ADR, is a derivative of the above P388/S made resistant to intercalating agents like […].
# B16 melanoma [5] = assay: B16 melanoma implanted ip, drug ip (ip-ip) in BDF1 mice; type: in vivo
# Protocol: as §6, §7, §8, §9, §10, §11, §12, §13, §14, §15, §16
# [6] = cited from earlier work
# C26 colon carcinoma = C26 colon carcinoma implanted in CDF1 mice, drug ip; type: in vivo
# Protocol: implantation. Primary colon C26 carcinoma (tripan blue excluding, 2.5
# × 10^5 cells/mouse) implanted in CDF1 mice on day 0; drug
# as §10, §11, §12, §13, §14, §15, §16
# purified calf thymus DNA = assay: Covalent and noncovalent (intercalative) binding to calf thymus DNA, [DNA base]/[drug] ratios; settings: 20 mM Tris-HCl pH 7.4, 37° C.
# Protocol: ^b Binding to purified calf thymus DNA in 20 mM TrisHCl, ph 7.4 buffe
# at 37° C.; A values are molar ratios of DNA to drug based on the
# total amount of drug that is bound both intercalatively and covalently to
# ^c B values are similar ratios assayed on the basis of drugs bound
# entirely by covalent bonding to DNA base.
# B16 = assay: Inhibition of growth in vitro of B16 cells; type: cell-based, mouse; settings: actively growing tumor cells
# Protocol: (§17) The analogues are assayed for in vitro growth inhibitory activity against several experimental tumor lines including human and murine leukemia, mouse melanoma, and human lymphoblastic leukemia.
# L1210 cells = assay: Inhibition of growth of L1210 cells in culture; type: cell-based, Murine
# Protocol: as §17
# CCRF-CEM = assay: In vitro growth inhibition of CCRF-CEM human lymphoblastic leukemia cells; type: cell-based; settings: purer (90%) form of isomers
# Protocol: as §17
# P388/ADR [7] = assay: Inhibition of growth in vitro of P388/ADR cells; type: cell-based, mouse; settings: actively growing tumor cells
# Protocol: as §17
# leukemia L1210 = assay: Activity in mice bearing leukemia L1210; type: in vivo; settings: L1210 ip in CDF1 mouse
# Excerpt: ^e OD, optimal dose of drugs in milligrams/killograms per injection,
# administered ip on days 1, 5, and 9, following ip inoculation with
# ^f % ILS, percent increase in median life span in days, of the
# tumorbearing drugtreated dying animals when compared with similar tumor
# bearing mice but not treated with drugs. (surv), number of over 60 days
# survivors/number of animals tested.
# [8] = B16 sc implanted, drug iv day 1
# [9] = B16 ip implanted, drug ip days 1, 5, 9
# [10] = ip days 1, 5, 9, at optimal dose
smiles,measurement,setting,value
"Cc1c2oc3c(C)ccc(C(=O)N[C@@H]4C(=O)N[C@H](C(C)C)C(=O)N5CCC[C@H]5C(=O)N(C)CC(=O)N(C)[C@@H](C(C)C)C(=O)O[C@@H]4C)c3nc-2c(C(=O)N[C@@H]2C(=O)N[C@H](C(C)C)C(=O)N3CCC[C@H]3C(=O)N(C)CC(=O)N(C)[C@@H](C(C)C)C(=O)O[C@@H]2C)c(N)c1=O [1b(AMD), Actinomycin D] (I: T[dV]P[Sar][NMeV] / II: T[dV]P[Sar][NMeV]; ester I:1-I:C, II:1-II:C; linker I:N-II:N via Actinocin(9to1))",IC50,[1],380 ± 28 nM
same,Tm (ΔTm = Tm of DNA-drug complex minus Tm of drug-free DNA),Calf Thymus DNA,7.1 ± 0.15
same,IC50,[2],19 ± 6 nM
same,% ILS,B16 melanoma [3]; [8],36%
same,(surv) sixty day survivors/number of mice treated,B16 melanoma [3]; [8],0/9
same,MST (median survival time),B16 melanoma [3]; [8],45.0 days
same,OD (optimal dose),"B16 melanoma [3]; B16 sc implanted, drug iv day 1, 0.1 mL vehicle",0.9 milligrams/milliliter of vehic
same,"activity against sc implanted B16 tumor, in words",B16 melanoma [3]; iv administered,only marginally active
same,% ILS (percent increase in median life time vs controls),"P388/ADR [4]; ip qd 1-9, at optimal dose",33%
same,(surv) number of 60 days survivors/number of animals tested,"P388/ADR [4]; ip qd 1-9, at optimal dose",0/10
same,MST (median survival time),"P388/ADR [4]; ip qd 1-9, at optimal dose",12 days
same,OD (optimal dose of drugs),P388/ADR [4]; treated ip qd 1-9,0.075
same,% ILS,B16 melanoma [5]; [9],52%
same,(surv) sixty day survivors/number of mice treated,B16 melanoma [5]; [9],0/9
same,MST (median survival time),B16 melanoma [5]; [9],29.0 days
same,OD (optimal dose),"B16 melanoma [5]; B16 ip implanted, drug ip days 1, 5, 9, 0.1 mL vehicle",0.25 milligrams/milliliter of vehic
same,"activity against ip implanted B16 tumor, in words",B16 melanoma [5]; ip administered,only moderately active
same,metabolism in vivo,[6],not metabolized in vivo
same,% ILS,"C26 colon carcinoma; drug ip days 1, 5, 9",52%
same,(surv) sixty day survivors/number of mice treated,"C26 colon carcinoma; drug ip days 1, 5, 9",0/10
same,MST,"C26 colon carcinoma; drug ip days 1, 5, 9",33.5 days
same,OD (optimal dose),"C26 colon carcinoma; drug ip days 1, 5, 9, 0.1 mL vehicle",0.30 milligrams/milliliter of vehic
same,"[DNA base]/[drug] A: molar ratio of DNA to drug, total drug bound intercalatively and covalently",purified calf thymus DNA,26 ± 2
same,inhibition of growth ID50 B16,B16,3.0 ± 1.0 nM
same,inhibition of growth of L1210 cells in culture; ID50,L1210 cells,60.1 ± 9.8 nM
same,50% growth inhibitory dose (ID50),CCRF-CEM,12.5 nM
same,inhibition of growth ID50 P388/ADR,P388/ADR [7],2500 ± 250 nM
same,OD (optimal dose),"leukemia L1210; ip days 1, 5, 9",0.025 milligrams/killograms per inje
same,% ILS (percent increase in median life span),leukemia L1210; [10],55%
same,(surv) number of over 60 days survivors/number of animals tested,leukemia L1210; [10],0/9
